Source: patent US9056923B2, “Mimetic peptides derived from collagen type IV and their use for treating angiogenesis- and lymphagiogenesis-dependent diseases” (THE JOHNS HOPKINS UNIVERSITY, priority 2010, dated 2015)
Where two headings read alike, the source gives them in different places. Square brackets hold non-standard residues; d marks the D form. Ends that are not written are not given here. Peptide text beside a SMILES is read from it. Abu = CC[C@H](N)C(=O)O

Legend:
[1] = tested on: microvascular endothelial cells (MEC); assay: MEC adhesion assay; format: cell-based
Procedure: (§1) Similar to the migration assays, the inhibition activity of the peptide in cellular adhesion was assessed using the RT-CIM technology. In this case, 25,000 cells/well were plated in 16 wells E-plates (Roche, Basel Switzerland) in the presence or absence of the peptide. The adhesion was monitored over time (3 hours) by measuring changes in the electrical impedance, which is a direct measure of the cells adhering on the electrodes. […] Assays were performed in at least two independent replicates and each replicate was performed using two experimental duplicates.

HUVEC [2] = format: cell-based, human; details: for Activity in Proliferation: Yes/No summary
In short: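 HUVEC plated at 2000 cells/well overnight, then exposed to peptides in fully supplemented medium for three days. WST-1 added in serum-free EBM-2 for four hours and absorbance read at 450 nm. Percent live cells taken relative to untreated cells in complete medium with 0.2% DMSO.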

HUVEC [3] = format: cell-based, human; details: for Activity in Adhesion: Yes/No summary, active = inhibitory potential greater than 30%
In short: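 Adhesion of 25,000 cells per well, with or without peptide, followed by real-time electrical impedance on electrode plates over 3 hours. At least two independent replicates, each run in duplicate.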

[4] = tested on: MDA-MB-231 breast cancer cells; assay: MDA-MB-231 wound healing type migration assay (Oris Pro); format: cell-based
Procedure: Breast cancer cells MDA-MB-231 are not suitable for the RT-CIM type experiments due to their thin elongated phenotype, thus the inhibition of migration was investigated using a wound healing type assay. This assay was performed using the Oris Pro Migration assay (Platypus Technologies, CMA 1.101). Briefly, 20,000-25,000 cells/well in full media were added to the 96 well plate containing stoppers to block migration of cells to the center region of the wells. Cells were allowed to adhere for 4 hours, after which the stoppers were removed. Cells were washed one time with PBS and fully supplemented media, with or without compound, was added to the wells. […], cells were stained with calcein AM (0.5 μg/mL) (Invitrogen, CA) and the cells that migrated to the center of the well were quantified by fluorescence intensity measured using a Victor V plate reader (Perkin Elmer) and also imaged using a Leica or Nikon microscope.

[5] = tested on: lymphatic endothelial cells (LEC); assay: LEC adhesion assay; format: cell-based
Procedure: as §1

MDA-MB-231 xenograft = assay: MDA-MB-231 orthotopic breast tumor xenograft; format: in vivo, SCID mice
Procedure: For primary tumor inhibition studies, 1−2×10^6 tumor cells were injected into 4-6 wk old female SCID mice. After the tumors reached a size of 100 mm^3 the animals were randomized into groups of 10 animals each. The animals were treated with vehicle, SP2012, SP2000, or SP2024. The peptides were administered subcutaneously daily. Dosing was continued for 3 or 4 weeks and tumor sizes were measured every 3 days using calipers. The tumor volume was estimated using the formula V=a^2b/2 where a and b are the smaller and larger diameters.
For the tumor xenograft assay, animals were housed and treated according to the approved animal protocol of the Institutional Care and Use Committee at Johns Hopkins Medical Institution (JHMI). Orthotopic breast tumors were initiated in SCID mice using MDA-MB-231 cells. 2×10^6 cells per 100 μL aliquot of single cell suspension were injected in the breast mannary fat pad. Tumors reached volumes of 75 mm^3 to 100 mm^3 in approximately 14-21 days. Mice were randomized and arranged in groups (8 mice per group) with similar tumor volumes (no statistical difference among averages) and treatment was commenced. Peptides were administered once per day intraperitoneally (i.p.) at doses of 10 mg/kg (subcutaneous delivery was also tested with certain peptides). Paclitaxel was administered at 5 mg/kg once a week, and to maintain the daily treatment regime PBS was administered on the non-treatment days. Tumors were measured every fourth day using calipers and the tumor volume was calculated using the formula V=ab^2/2, where a is the larger diameter and b is the smaller diameter.

[6] = tested on: MDA-MB-231 breast cancer cells; assay: MDA-MB-231 adhesion assay; format: cell-based
Procedure: as §1

[7] = tested on: lymphatic endothelial cells (LEC); assay: LEC migration assay; format: cell-based
Procedure: (§2) The inhibitory potential of the peptides was measured using a real time migration assay system based on electrical impedance (RT-CIM, ACEA Biosciences, CA). CIM 16 well plates (Roche, 05665817001) are composed of a top and bottom chamber separated by a microporous (8 μm) polycarbonate membrane. The membrane was coated with fibronectin (20 μg/mL), and 45,000 cells/well in serum free media with or without peptides were added to the top compartment. Media with chemoattractant (i.e., fully supplemented EBM-2) was added to the bottom compartment of the chamber and the plate was incubated at 37° C. for 20 hours. The sensors integrated on the bottom side of the membrane monitor and continuously record changes in impedance as the cells move through the membrane. The RT-CIM technology allows for easy quantification of cell migration by monitoring the cell index derived from the measured impedances. Assays were performed in at least two independent replicates and each replicate was performed using two experimental duplicates.

HUVEC [8] = assay: HUVEC migration assay (RT-CIM); format: cell-based, human; details: for Activity in Migration: Yes/No summary, active = inhibitory potential greater than 30%
In short: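 Real-time impedance (RT-CIM) transwell migration through fibronectin-coated (20 μg/mL) 8 μm membranes; 45,000 cells/well in serum-free medium ± peptides, fully supplemented EBM-2 as chemoattractant below. Cell index recorded over 20 h at 37 °C; ≥2 independent replicates, each in duplicate.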

[9] = tested on: microvascular endothelial cells (MEC); assay: MEC migration assay; format: cell-based
Procedure: as §2

HUVEC [10] = assay: HUVEC tube formation assay on Matrigel; format: cell-based, human; details: for Activity in Tube formation: Yes/No summary
In short: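 HUVEC (15,000/well) plated on polymerized Matrigel in complete media with or without peptide for 19 h at 37 °C. Tube networks imaged by microscopy, one random field per well, in triplicate wells across at least two independent experiments.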

[11] = tested on: choroidal neovascularization; assay: Laser-induced choroidal neovascularization model; format: in vivo, C57BL/6 mice; details: 0.1 μg into a mouse eye
Procedure: The ocular laser-induced choroidal neovascularization (NV) model of wet age-related macular degeneration was used for testing. 5-6-week-old female pathogen-free C57BL/6 mice were anesthetized with ketamine hydrochloride (100 mg/kg body weight) and pupils were dilated. Laser photocoagulation (75-μm spot size, 0.1-sec duration, 120 mW) was performed in the 9, 12, and 3 o'clock positions of the posterior pole of each eye with the slit lamp delivery system of an OcuLight GL diode laser (Iridex, Mountain View, Calif.) and a handheld cover slip as a contact lens to view the retina. Production of a tissue bubble by the laser, which indicates rupture of Bruch's membrane, is an important factor in obtaining choroidal NV; therefore, only burns in which a bubble is produced are included in the study. […] At day 7 the mice that received the naked peptides were dosed again whereas the mice that received the particles were administered PBS. Intravitreous injections were done under a dissecting microscope with a Harvard Pump Microinjection System and pulled glass micropipettes. After 14 days, the mice were perfused with 1 mL of PBS containing 50 mg/mL of fluorescein-labeled dextran (2×10^6 Daltons average molecular weight; Sigma-Aldrich, St. Louis, Mo.) and choroidal flat mounts were examined by fluorescence microscopy. Images were captured with a Nikon Digital Still Camera DXM1200 (Nikon Instruments Inc., New York, N.Y.). Image analysis software (Image-Pro Plus; Media Cybernetics, Silver Spring, Md.) was used to measure the total area of choroidal NV at each rupture site with the investigator masked with respect to treatment group.

[12] = tested on: VEGF mediated retinal neovascularization; assay: Rho/VEGF transgenic mice model of retinal neovascularization; format: in vivo
Procedure: The ocular Rho/VEGF transgenic mice model of wet age-related macular degeneration also was used to test some of the peptides. Transgenic mice in which the rhodopsin promoter drives expression of VEGF in photoreceptors have the onset of VEGF production at P7 and develop extensive NV along the outer surface of the retina by P21 (Okamoto et al., 1997; To be et al., 1998). Mice hemizygous for the transgene (n=15 for each dose) were given an intraocular injection of 1 μl of PBS containing 0.01, 0.1, or 1 μg of peptide or scramble peptide in one eye at P7 and P14 and at P21 the mice were anesthetized, perfused with fluorescein-labeled dextran, and the total area of neovascularization on the outer surface of the retina was measured on retinal flat mounts by image analysis as above.

## CC[C@H](NC(=O)[C@H](Cc1ccccc1)NC(=O)[C@H](CCSC)NC(=O)[C@H](Cc1ccccc1)NC(=O)[C@@H]1CCCN1C(=O)[C@H](CCSC)NC(=O)[C@@H](NC(=O)[C@H](CO)NC(=O)[C@H](Cc1ccccc1)NC(=O)[C@H](CCCNC(=N)N)NC(=O)[C@H](CCCNC(=N)N)NC(=O)[C@@H](N)CC(C)C)[C@@H](C)O)C(=O)N[C@@H](CC(N)=O)C(=O)N[C@H](C(=O)N[C@@H](CC(N)=O)C(=O)N[C@@H](CC(N)=O)C(=O)N[C@H](C(=O)N[C@@H](CC)C(=O)N[C@@H](CC(N)=O)C(=O)N[C@@H](Cc1ccccc1)C(N)=O)C(C)C)[C@@H](C)CC [SP2012, LRRFSTMPFMFAbuNINNVAbuNF] (H-LRRFSTMPFMF[Abu]NINNV[Abu]NF-NH2; N-terminus assumed)
[1]
  inhibition of adhesion of MEC: quite active
HUVEC [2]
  IC50: 22 µM
HUVEC [2]; HUVEC
  Activity in Proliferation: Yes
HUVEC [2]; HUVEC, tables 5, 8-10 and text, read-out: IC50 ± 95% CI (μM), proliferation
  IC50: 48.1 ± 23.1 µM
HUVEC [3]; HUVEC, 100 uM peptide
  Adhesion Inhibition (100 uM): 93.14%
HUVEC [3]; HUVEC
  Activity in Adhesion: Yes
[4]
  inhibition of migration of MDA-MB-231 cells: strong
[4]; 50 μM and 5 μM treatments, 17 hours of incubation
  Migration of MDA-MB-231 cells into the restricted area: statistically significant versus the control
[5]
  inhibition of adhesion of LEC: strong
MDA-MB-231 xenograft; MDA-MB-231 xenograft in mice, 10 mg/kg daily
  suppression of tumor growth: tumor growth was inhibited
MDA-MB-231 xenograft; after completion of the treatment at 21 days
  microvascular density: statistically different from one another
MDA-MB-231 xenograft; mice
  MDA-MB-231 xenograft inhibition: Active
[6]
  inhibition of adhesion of MDA-MB-231 cells: strong
[7]
  inhibition of migration of LEC: strong
HUVEC [8]; 5 uM peptide
  Migration Inhibition (5 uM): 0% (5 uM)
HUVEC [8]; 50 uM peptide
  Migration Inhibition (50 uM): 68%
HUVEC [8]
  Activity in Migration: Yes
[9]
  inhibition of migration of MEC: quite active
HUVEC [10]; (l0 uM) printed in the cell
  Tube formation Inhibition: Complete
HUVEC [10]
  Activity in Tube formation: Yes

## LRRFSTAPFAFININNVINF-NH2 [SP2036]
HUVEC [2]
  IC50: 9.97 ± 8.3 µM
HUVEC [2]; HUVEC
  loss of activity in proliferation compared to substitution of Methionine at position 10: 10 fold
  Activity in Proliferation: Yes
[11]
  laser-induced choroidal neovascularization: inhibited laser-induced choroidal neovascularization
HUVEC [3]; 3 h
  IC50: 2.75 ± 1.22 µM
HUVEC [3]; HUVEC
  Activity in Adhesion: Yes
[12]; 0.1 μg administered directly into the eye
  inhibition of VEGF mediated angiogenesis: about 70%
[12]; 0.1 μg into a mouse eye
  area of retinal neovascularization in the Rho/VEGF model: inhibited
HUVEC [8]
  Activity in Migration: Yes
HUVEC [10]
  Activity in Tube formation: Yes
